This is an account of results in a melting point compilation (Tetko et al.).

Take `Clc1cc2c(cc1Cl)Oc1cc(Cl)c(Cl)cc1O2`: the melting point (as a rule, the temperature of the solid-liquid transition) was determined as 305 °C. In the case of `COc1ccc(-c2cc(-c3ccc(OC)cc3)cc(-c3ccc(OC)cc3)c2)cc1`, the melting point lay within 143 to 146 °C.

Compound `CC(=O)Nc1ccc(C=CC(=O)c2ccccc2)cc1` returned a melting point of 179 °C.

Consider `N=C(N)NS(=O)(=O)c1cc(C(F)(F)F)cc(C(F)(F)F)c1`, for which the melting point was in the range of 194 to 197 °C. For `O=Cc1ccc(-c2ccc(Cl)cc2)o1`, the melting point was 128 to 131 °C. For `Cc1cc(Br)cc(N)c1N` the value was 63 to 64 °C; for `O=C(c1ccncc1)N1N=C(c2ccccc2)CC1c1cn(-c2ccccc2)nc1-c1ccccc1` (configuration not stated), 224 to 226 °C; for `OCc1snnc1-c1ccccc1`, 116 to 118 °C. As for `CC(=O)c1c(-c2ccc(Cl)cc2)noc1C`, the figure is 56 to 59 °C; as for `OCc1nccn1Cc1ccccc1`, 94 to 97 °C. For `O=C(NCCCBr)c1cc([N+](=O)[O-])cc([N+](=O)[O-])c1` the value was 195 °C; for `CC(=O)C1C(=O)C2(C)CCC1C2(C)C` (configuration not stated), 201 °C.

On to `COc1cc(C)nc(-n2nc(C)cc2OC)n1`, for which the melting point was 91 °C. For `COC(=O)[C@@H]1C[C@@H](O)CN1C(=O)OC(C)(C)C` the value was 91 to 96 °C. As for `Cc1nccn1-c1ccccc1C(=O)O`, the figure is 232 to 234 °C; as for `O=C(O)CN(CC(=O)O)Cc1cc2c(cc1O)Oc1cc(O)c(CN(CC(=O)O)CC(=O)O)cc1C21OC(=O)c2ccccc21`, 200 °C.

In turn, `COc1ccc(-n2c(=S)[nH]c(=O)c3cccnc32)cc1` displayed a melting point of 261 to 263 °C. For `CC(CC(C(N)=O)(c1ccccc1)c1ccccc1)N(C)C` (configuration not stated) the value was 137 °C.

For `CCC(C)(O)C(C)(C)C` (configuration not stated), the melting point is -6 °C. On to `NC(C(=O)O)(c1ccccc1)C1CCC1` (configuration not stated), for which the melting point lay within 256 to 258 °C. As for `CCOC(=O)C1=C(C)NC(=O)NC1c1ccccc1Cl` (configuration not stated), the figure is 217 °C; as for `COC(=O)C1(S(=O)(=O)c2ccc(Br)cc2)CCCCC1`, 112 °C.

As to `CCOC(=O)c1cc(C)nc(Cl)n1`, the melting point lay within 56.5 to 59 °C. Consider `Cc1nc(/C(C#N)=C/c2ccc(O)cc2)sc1/N=N/c1ccc(Cl)cc1`, for which the melting point was found to be 230 °C. For `CC[C@H](N)P(=O)(O)O` the value was 260 °C. For `OCc1ccc(-n2ccnc2)cc1` the value was 87 to 89 °C; for `O=C(Cl)OCC1c2ccccc2-c2ccccc21`, 63 °C. Regarding `Cc1cccc(O)n1`, the melting point stood at 159 °C.

In turn, `CCCCOC(=O)CC(O)(CC(=O)OCCCC)C(=O)OCCCC` returned a melting point of -20 °C. In turn, `Cc1ccc([N+](=O)[O-])cc1F` registered a melting point of 35 °C. For `Fc1c(F)c(F)c(CBr)c(F)c1F` the value was 19 °C; for `Cc1cc(C(F)(F)F)n2nc(N)c(/N=N/c3ccc(Cl)cc3Cl)c2n1`, 210 °C; for `O=Cc1ccnc(Cl)c1`, 47.5 °C. As for `Nc1ccc(S(=O)(=O)c2ccc(NCC(=O)O)cc2)cc1`, the figure is 194 °C. As for `CC(C)(C)c1cc(C(=S)Nc2ccccc2)cc(C(C)(C)C)c1O`, the figure is 227 to 228 °C; as for `O=C1c2cccc3cccc(c23)C(=O)N1O`, 245 °C.

Compound `NCC(O)CN` came in with a melting point of 43 °C. As for `COc1ccc2ccccc2c1CO`, the figure is 100 to 104 °C; as for `COc1ccc(C(O)C(=O)O)cc1O` (racemic), 125 to 132 °C.

`COc1cc(OC(C)=O)c2c(=O)c(OC(C)=O)c(-c3ccc(OCc4ccccc4)c(OC(C)=O)c3)oc2c1`: the melting point fell in the range of 182 to 192 °C. As for `CCOC(=O)c1cc2ccccc2oc1=S`, the figure is 91 °C; as for `O=[N+]([O-])c1cccc2scc(Br)c12`, 120 to 122 °C. As for `CCCCCCCCCCCCCCCCCCC(=O)NC`, the figure is 91 to 94 °C; as for `CC(=O)OC1CC2C(C)C(=O)C3(C(O)CC4C(C)(C)CCCC4(CO)C13)C2O` (configuration not stated), 120 °C.

Compound `CN1CCC23c4c5ccc(O)c4OC2C(=O)CCC3(O)C1C5` (configuration not stated) came in with a melting point of 248 °C. In turn, `CCCCCSC` had a melting point of -94 °C. In turn, `Cc1nn(-c2ccccc2)nc1C(=O)N1CCCC1` yielded a melting point of 89 to 90 °C.

In the case of `CC(C)(C)OC(=O)CC(NC(=O)OCC1c2ccccc2-c2ccccc21)C(=O)O` (configuration not stated), the melting point was 147 to 151 °C. As for `Nc1cccc(S(=O)(=O)N2CCCCC2)c1`, the figure is 117 to 118 °C; as for `Cc1cc2occc(=O)c2cc1Cl`, 171 °C. For `COCCCl` the value was -55 °C; for `NC(=S)Nc1ccc(F)cc1F`, 163 to 168 °C; for `C=C(C)[C@H]1CC=C(C)C(=O)C1`, 89 °C. For `Nc1ccccc1CO` the value was 83.5 °C; for `CC1C(c2ccc(Cl)cc2)SC(=O)N1C(=O)NC1CCCCC1` (configuration not stated), 108 °C. With `O=P(N1CCOCC1)(N1CCOCC1)N1CCOCC1`, the melting point amounted to 190 °C. For `CCc1c2c(nc3ccc(OC(=O)N4CCC(N5CCCCC5)CC4)cc13)-c1cc3c(c(=O)n1C2)COC(=O)C3(O)CC` (configuration not stated) the value was 222 °C; for `COc1cc(Br)cc(C=O)c1O`, 129 to 131 °C; for `Brc1cc2ccc1CCc1ccc(c(Br)c1)CC2`, 251 °C.

Take `O=C(Nc1ccc(C#Cc2ccc(NC(=O)c3ccccc3)cc2)cc1)c1ccccc1`: the melting point stood at 332 °C. For `Cc1nc2ccccc2c(=O)n1-c1ccccc1Cl` the value was 126 °C; for `CC(C)(c1ccc(OC(=O)Cl)cc1)c1ccc(OC(=O)Cl)cc1`, 90 to 95 °C. For `CC1=CC(=O)OC(C)(C)O1` the value was 7 °C; for `CCCCC(C)O` (configuration not stated), -23 °C; for `NC(=O)/C(=N\Nc1cc(Cl)c(Cl)cc1Cl)c1nc2ccccc2s1`, 236 °C. For `NC(=S)c1cccc(Cl)c1` the value was 110 to 113 °C; for `CCOC(=O)[C@H](CCc1ccccc1)N[C@@H](C)C(=O)O`, 148 to 153 °C; for `CC(=O)NC(Cc1ccc(Br)cc1)C(=O)O` (configuration not stated), 191 to 193 °C.

With `CC(C(O)c1ccccc1)N(C)C` (configuration not stated), the melting point came to 87.5 °C. With `COc1cc(C(=O)O)c(OC)c([N+](=O)[O-])c1`, the melting point lay in the range of 180 to 184 °C. For `O=C(NNC(=S)NCc1ccccc1)C(=O)c1c[nH]c2ccccc12` the value was 243 °C. For `O=C(O)c1cc(C(=O)O)c(C(=O)O)cc1C(=O)O` the value was 281 to 284 °C. `O=S(=O)(c1ccccc1)n1ccc2cc(Br)ccc21` came in with a melting point of 90 to 93 °C. As for `O=C(O)C(O)C(O)C(=O)Nc1ccc(Cl)cc1` (single isomer, unassigned; (+)), the figure is 193 to 195 °C. As for `FC(F)(F)C(Cl)(Cl)Cl`, the figure is 14.2 °C; as for `O=C(Cl)c1cccnc1Sc1ccc(Cl)cc1`, 100 to 103 °C. For the compound `Cc1ccc2c(c1)CCCC2`, the melting point is -40 °C.

The compound `FC(F)(F)C(F)(F)C(F)(F)C(F)(F)C(F)(F)C(F)(F)C(F)(F)F` showed a melting point of -78 °C. The compound `Cn1nc(CCl)cc1-c1ccco1` yielded a melting point of 72 to 73 °C.

`C[C@@H]1N[C@H](C(=O)O)CC2c3ccccc3NC21` (some centres not stated) came in with a melting point of 286 °C. The compound `CCOc1cccc(NC(C)=O)c1` showed a melting point of 97 °C. For `O=C1OC(=O)C2C3C=CC(C12)C1C(=O)OC(=O)C31` (configuration not stated) the value was 360 °C; for `C1=Cc2ccccc2CC1`, -8 °C; for `CC(=O)c1ccc(N2CCNCC2)cc1`, 107 to 110 °C. As for `CN1CCC23c4c5ccc(O)c4OC2C(O)CCC3C1C5` (configuration not stated), the figure is 157 °C; as for `CCCCCCC(=O)CCC`, -9 °C. With `O=S(=O)(c1ccc(Cl)cc1)N(C1CCNCC1)C1CC1`, the melting point lay within 111 to 114 °C. As for `CN(C)c1ccc(C=C2C=C(c3ccccc3)OC(c3ccccc3)=C2)cc1`, the figure is 181 °C; as for `CCCCCCCC(=O)OC`, -40 °C. As for `CCN(CC)C(=O)c1cccnc1`, the figure is 25 °C. As for `O=P(O)(OCc1ccccc1)OCc1ccccc1`, the figure is 80 °C. Take `O=C(Oc1ccc2ccccc2c1)c1cccc(S(=O)(=O)Oc2ccc3ccccc3c2)c1`: the melting point came to 172 °C. As for `c1ccc2c(P(c3cccc4ccccc34)c3cccc4ccccc34)cccc2c1`, the figure is 265 to 268 °C; as for `CCCCCCCCCCNC(=O)C(C(F)(F)F)C(F)(F)F`, 66 °C. For `CC(C)(C)OC(=O)N1CCC(N)CC1` the value was 46 °C; for `NC(CO)C(=O)O` (racemic), 240 °C. As for `Cn1ccc2cc([N+](=O)[O-])ccc21`, the figure is 167 to 169 °C; as for `O=C(O)c1cc2cccnc2nc1C(F)(F)F`, 309 to 310 °C; as for `O=C(c1ccccc1)c1ccc(C(F)(F)F)c(F)c1`, 66 °C. In the case of `CC(C)(C)c1ccc2ccccc2c1`, the melting point is -4 °C. For `CCCCCCCCC(O)C(O)CCCCCCCC(=O)O` (configuration not stated) the value was 90 °C; for `Cc1ccc(Cl)c(O)c1`, 46 °C; for `CC(=O)NC(N)=S`, 165 °C. `C1=CCCCCCCCCCC1` had a melting point of -9 °C. In turn, `CCCC(CCC)C(=O)O` displayed a melting point of 125 °C.

For `COc1ccc2c3c1OC1C(O)C=CC4C(C2)[N+](C)([O-])CCC341` (configuration not stated), the melting point amounted to 232 °C.

In the case of `CCOC(=O)c1c(SC)nn(C(=O)c2ccccc2)c1N`, the melting point was 95 °C.
